Measured values as given in patent US6825230B2, “Spiro and dispiro 1,2,4-trixolane antimalarials” (Medicines for Malaria Venture MMV, priority 2002, dated 2004).
≈ marks a conversion by molar mass, not a printed value.

Assays:
P. berghei ANKA strain = experiment: Onset of action and recrudescence experiment, single 100 mg/kg po; assay type: in vivo, Plasmodium berghei; conditions: single 100 mg/kg po (SSV) on day +3 post-infection; recrudescence = >5% parasitemia; followed up to 60 days; groups of five
Description: The onset of drug action was determined after a single fixed dose of 100 mg/kg (SSV vehicle) po to groups of five animals on day +3 post-infection (day 0).
Moro NMRI male mice (Fu Albino specific pathogen free) weighing 18±2 g were infected intravenously (i.v.) with 2×10^7 P. berghei ANKA strain-infected erythrocytes from donor mice on day 0 of the experiment. From donor mice with circa 30% parasitemia, heparinized blood was taken and diluted in physiological saline to 10^8 parasitized erythrocytes per ml. An aliquot (0.2 ml) of this suspension was injected i.v. into experimental and control groups of mice. […] Throughout the experiments, mice were kept in groups of three or five animals in Makrolon type II cages in an air-conditioned animal room at 22 to 23° C.

[1] = test system: Schistosoma mansoni 21-day-old schistosomules; experiment: Effect on 21-day-old schistosomules in infected mice; assay type: in vivo; conditions: single 200 mg/kg per os, 21-day-old schistosomules; for % reduction of schistosomule growth at day 21 after per os application of 200 mg/kg, FWR (%): female worm reduction rate; for % reduction of schistosomule growth at day 21 after per os application of 200 mg/kg, TWR (%): total worm reduction rate
Description: Mice were infected with 100 Schistosoma mansoni cercariae on day 21 post-treatment. Each group was treated per os with trioxolanes at a single dose of 200 mg/kg. […] All groups were killed 4 weeks after treatment and the liver and intestine were removed and separated. The liver and intestine were compressed and alive male and female worms could be seen and counted. The effect of the compounds was evaluated by mean total and female worm burden.

[2] = test system: ANKA strain of Plasmodium berghei; experiment: Single dose ED50/ED90/ED99 determination in infected mice; assay type: in vivo; conditions: single dose po in SSV on day 1 post-infection, parasitemia day 3, nonlinear fitting; for ED50: Plasmodium berghei, po
Description: In the single dose ED50/ED98/ED99 determinations, Moro SPF or NMRI mice (group of three) infected with the ANKA strain of Plasmodium berghei were treated on day one post-infection. […] The SSV consists of 0.5% w/v CMC, 0.5% v/v benzyl alcohol, 0.4% v/v Tween 80, and 0.9% w/v sodium chloride in water. Antimalarial activity was measured by percent reduction in parasitemia on day three post-infection. The ED50/ED90 values were calculated by nonlinear fitting.
The ED50, ED90, and ED99 values were calculated by non-linear fitting with statistical program and were expressed in mg/kg.

[3] = test system: Schistosoma mansoni adult worms (49-day-old); experiment: Effect on adult schistosomes (49-day-old) in infected mice; assay type: in vivo; conditions: for % reduction of adult worms growth at day 49 after per os application of 400 mg/kg, TWR (%) / Adult worms day 49, per os 400 mg/kg, DEAD WORM (%): single 400 mg/kg per os
Description: Mice were infected with 100 Schistosoma mansoni cercariae on day 49 post-treatment. Each group was treated per os with OZ compounds at single doses of 200, 400, and 600 mg/kg. Untreated mice served as the control. All groups were killed 4 weeks after treatment and the liver and intestine were removed and separated. The liver and intestine were compressed and alive male and female worms could be seen and counted.

[4] = test system: chloroquine-sensitive NF54 strain of P. falciparum; experiment: In vitro antimalarial semiautomated microdilution assay ([3H]-hypoxanthine incorporation), NF54 strain; assay type: cell-based, Plasmodium falciparum; conditions: Plasmodium falciparum, NF54, 72 h, read-out: IC50 (ng/ml) NF54, chloroquine-sensitive NF54 strain, 72 h incubation
Outline: (§1)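 Logit regression analysis yields the fifty percent inhibitory concentration. Compounds are tested by semiautomated microdilution on intraerythrocytic parasites drawn from asynchronous stock cultures, measuring [3H]-hypoxanthine incorporation.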

[5] = test system: ANKA strain of P. berghei; experiment: Single dose STI in vivo screen in infected mice; parameters: species or system Plasmodium berghei; conditions: for Survival (days) 10 mg/kg po: single 10 mg/kg po in 3% ethanol and 7% Tween 80; for Survival (days) 10 mg/kg po / Survival (days) 10 mg/kg SSV po / Survival (days) 10 mg/kg sc: untreated 6-7 days; for Activity (%) 10 mg/kg po: single 10 mg/kg po in 3% ethanol and 7% Tween 80 on day 1 post-infection; for Activity (%) 10 mg/kg po / Activity (%) 10 mg/kg SSV po / Activity (%) 10 mg/kg sc: percent reduction in parasitemia on day 3; for Survival (days) 10 mg/kg SSV po: single 10 mg/kg po in SSV; for Activity (%) 10 mg/kg SSV po: single 10 mg/kg po in standard suspending vehicle (SSV) on day 1 post-infection; for Survival (days) 10 mg/kg sc: single 10 mg/kg sc in 3% ethanol and 7% Tween 80; for Activity (%) 10 mg/kg sc: single 10 mg/kg sc in 3% ethanol and 7% Tween 80 on day 1 post-infection
[6] = test system: chloroquine-resistant K1 strain of P. falciparum; experiment: In vitro antimalarial semiautomated microdilution assay ([3H]-hypoxanthine incorporation), K1 strain; assay type: cell-based, Plasmodium falciparum; conditions: Plasmodium falciparum, K1, 72 h, read-out: IC50 (ng/ml) K1, chloroquine-resistant K1 strain, 72 h incubation
Outline: as §1

[7] = 49-day-old adults, total worm reduction rate
[8] = percentage of dead worm in the liver

Row | SMILES | Time of Recrudescence (P. berghei ANKA strain) | % reduction of schistosomule growth at day 21 after per os application of 200 mg/kg, FWR (%) [1] | % reduction of schistosomule growth at day 21 after per os application of 200 mg/kg, TWR (%) [1] | ED90 [2] | ED99 [2] | % reduction of adult worms growth at day 49 after per os application of 400 mg/kg, TWR (%) [3, 7] | Adult worms day 49, per os 400 mg/kg, DEAD WORM (%) [3, 8] | % reduction of adult worms growth at day 49 after per os application of 200 mg/kg, TWR (%) ([3]; single 200 mg/kg per os, 49-day-old adults, total worm reduction rate) | Adult worms day 49, per os 200 mg/kg, DEAD WORM (%) ([3]; single 200 mg/kg per os, percentage of dead worm in the liver) | % reduction of adult worms growth at day 49 after per os application of 600 mg/kg, TWR (%) ([3]; single 600 mg/kg per os, 49-day-old adults, total worm reduction rate) | Adult worms day 49, per os 600 mg/kg, DEAD WORM (%) ([3]; single 600 mg/kg per os, percentage of dead worm in the liver) | IC50 [4] | Survival (days) 10 mg/kg po [5] | Activity (%) 10 mg/kg po [5] | Survival (days) 10 mg/kg SSV po [5] | Activity (%) 10 mg/kg SSV po [5] | Survival (days) 10 mg/kg sc [5] | Activity (%) 10 mg/kg sc [5] | ED50 [2] | IC50 [6]
1 | CC1(C)COC2(CCC3(CC2)OOC2(O3)C3CC4CC(C3)CC2C4)OC1 (centres unmarked) [OZ11] | 22.2 days | 84% | 85% | 6.2 mg/kg | 8.2 mg/kg | 16% | 4% |  |  |  |  |  |  |  |  |  |  |  |  | 
2 | O=C(O)CC1CCC2(CC1)OOC1(O2)C2CC3CC(C2)CC1C3 (centres unmarked) [OZ78] | 11.2 days | 87% | 82% | 9.1 mg/kg | 17 mg/kg | 0% | 17% | 24% | 29% | 0% | 14% |  |  |  |  |  |  |  |  | 
3 | c1ccc(C[C@H]2CC[C@]3(CC2)OOC2(O3)C3CC4CC(C3)CC2C4)cc1 (some centres unmarked) [OZ156] | > 60 days |  |  | 2.6 mg/kg | 4.7 mg/kg | 0% | 6% |  |  |  |  | 2.1 ng/mL (≈ 5.92 nM) | 17.0 days | 99.98% | 10.3 days | 98.8% | 19.7 days | 99.98% | 1.3 mg/kg | 2.1 ng/mL (≈ 5.92 nM)
4 | O=C(C[C@H]1CC[C@]2(CC1)OOC1(O2)C2CC3CC(C2)CC1C3)NO (some centres unmarked) [OZ175] | 13.0 days |  |  | 6.2 mg/kg | 9.9 mg/kg |  |  |  |  |  |  | 2 ng/mL (≈ 5.93 nM) | 10.0 days | 99.1% | 12.3 days | 97% | 8.7 days | 92% | 3.5 mg/kg | 1.4 ng/mL (≈ 4.15 nM)
